# Experimental data as given in US6670383B2, “Pyranocoumarin compounds as a novel pharmacophore with anti-TB activity” (priority 2001, dated 2003).
# Where two headings read alike, the source gives them in different places.
# Assays:
# M. tuberculosis H37Ra = test: colorimetric microdilution broth assay with alamar Blue, initial screen at four log10 dilutions; assay type: cell-based; conditions: initial screening at 0.128, 1.28, 12.8 and 128 μg/mL
# Procedure: The compounds synthesized above were evaluated for activity against M. tuberculosis H37Ra using a colorimetric microdilution broth assay that incorporated the REDOX indicator alamar Blue, which indicates the growth and viability by the metabolic reduction of the dye from blue to red^18.
# In an initial screen, the compounds were assayed in duplicate at four log10 dilutions, with the highest concentration being 128 μg/mL (therefore, tested concentrations were 0.128, 1.28, 12.8, and 128 μg/mL). Each solubilized test compound was diluted in broth medium (Middlebrook 7H9+ADC enrichment+0.2% glycerol) at twice the desired concentration and 0.05 mL of each dilution then added to appropriate wells in duplicate in a 96 well (U-shaped) microtiter plates. A plate format was designed for up to seven (7) compounds per plate. Each plate also included uninoculated drug controls, viability controls, uninoculated medium controls, and positive drug controls. The inoculum for each well consisted of 0.05 mL of culture, standardized as described above to provide an inoculum in each microtiter well of approximately 10^5 CFU/mL. The plates were covered with a lid, placed in polyethylene bags and incubated for at 37° C. for 6 days. At that time, alamar Blue, diluted in Tween 80, was added to each well followed by further incubation for about 20 hours. The plates were read in an optical microplate reader programmed to subtract absorbance at 600 nm from absorbance at 570 nm. This effectively blanked out turbidity and absorbance due to oxidized dye. The amount of dye reduced, resulting in a change from blue to red, is indicative of drug yielding a differential absorption of zero or less.
# [1] = test system: H37Rv strain of M. tuberculosis; test: BACTEC 460 radiometric system in BACTEC 12B medium: inhibition and MIC; assay type: cell-based; conditions: for MIC: lowest concentration inhibiting 99% of the inoculum
# [2] = Mycobacterium tuberculosis, H37RA, read-out: MIC
# [3] = Mycobacterium tuberculosis, H37RA
compound,measurement,setting,value
"CCCc1cc(=O)oc2c(C(O)CC)c(O)c3c(c12)OC(C)(C)CC3 (centres unmarked) [Compound 12a, 5-Hydroxy-6-(1-hydroxypropyl)-2,2-dimethyl-10-propyl-3,4-dihydro-2H-pyrano[2,3-f]chromen-8-one]",MIC,M. tuberculosis H37Ra; [2],12.8 to 128 µg/mL
"CCCc1cc(=O)oc2c3c(c4c(c12)OC(C)(C)C=C4)O[C@H](C)[C@H](C)C3=O [(+)-Calanolide D (8), (+)-Calanolide D]",% Inhibition,[1]; 12.5 μg/mL,57%
same,MIC,[1],>12.5 µg/mL
CCCc1cc(=O)oc2c(C(=O)CC)c3c(c(OCC)c12)C=CC(C)(C)O3 [Compound 48],MIC,M. tuberculosis H37Ra; [2],12.8 to 128 µg/mL
"CCCc1cc(=O)oc2c(C(=O)CC)c(OCCO)c3c(c12)OC(C)(C)C=C3 [Compound 31e, 5-(2-Hydroxy-ethoxy)-2,2-dimethyl-6-propionyl-10-propyl-2H-pyrano[2,3-f]chromen-8-one]",MIC,M. tuberculosis H37Ra; [2],12.8 to 128 µg/mL
"CCCc1cc(=O)oc2c(C(=O)CC)c(OC)cc(OC)c12 [Compound 43b, 5,7-Dimethoxy-8-propionyl-4-propyl-chromen-2-one]",MIC,M. tuberculosis H37Ra; [2],> 128 µg/mL
"CCCc1cc(=O)oc2c3c(c4c(c12)OC(C)(C)C=C4)O[C@H](C)[C@@H](C)C3=O [(+)-12-Oxocalanolide A (6), (+)-12-Oxocalanolide A]",% Inhibition,[1]; 12.5 μg/mL,78%
same,MIC,[1],>12.5 µg/mL
"C=CCOc1cc2c(c3oc(=O)cc(CCC)c13)C(O)C(C)C(C)O2 (stereo not drawn) [trans-17c, 5-(Allyloxy)-10-hydroxy-8,9-dimethyl-4-propyl-9,10-dihydro-8H-pyrano[2,3-f]chromen-2-one]",MIC,M. tuberculosis H37Ra,>128 µg/mL
"CCCc1cc(=O)oc2c(C(=O)CC)c(OC(C)C)c3c(c12)OC(C)(C)CC3 [Compound 44h, 5-Isopropoxy-2,2-dimethyl-6-propionyl-10-propyl-3,4-dihydro-2H-pyrano[2,3-f]chromen-8-one]",MIC,M. tuberculosis H37Ra; [2],> 128 µg/mL
"CCCc1cc(=O)oc2c(C(=O)CC)c(CC(=O)OCC)c3c(c12)OC(C)(C)CC3 [Compound 44i, 5-Ethoxycarbonylmethyl-2,2-dimethyl-6-propionyl-10-propyl-3,4-dihydro-2H,8H-pyrano[2,3-f]chromen-8-one]",MIC,M. tuberculosis H37Ra; [3],> 128 µg/mL
"CCCc1cc(=O)oc2c3c(c4c(c12)OC(C)(C)C=C4)O[C@@H](C)[C@H](C)[C@@H]3O [(−)-Calanolide B (3), (−)-Calanolide B]",% Inhibition,[1]; 12.5 μg/mL,99%
same,MIC,[1],6.25 µg/mL
"CCCc1cc(=O)oc2c(C(=O)CC)c(O)c3c(c12)OC(C)(C)C=C3 [Compound 30, 5-hydroxy-2,2-dimethyl-6-propionyl-10-propyl-2H-pyrano[2,3-f]chromen-8-one]",MIC,M. tuberculosis H37Ra; [2],> 128 µg/mL
"CCCc1cc(=O)oc2c3c(cc(OC)c12)OC(C)C(C)C3O (stereo not drawn) [cis-17b, 5-Methoxy-10-hydroxy-8,9-dimethyl-4-propyl-9,10-dihydro-8H-pyrano[2,3-f]chromen-2-one]",MIC,M. tuberculosis H37Ra,>128 µg/mL
"CCCc1cc(=O)oc2c(C(CC)NCC)c(OC)c3c(c12)OC(C)(C)C=C3.Cl (centres unmarked) [Compound 45g, 6-(1-Ethylaminopropyl)-5-methoxy-2,2-dimethyl-10-propyl-2H-pyrano[2,3-f]chromen-8-one, hydrochloride]",MIC,M. tuberculosis H37Ra; [2],12.8 to 128 µg/mL
"CCCc1cc(=O)oc2c3c(c4c(c12)OC(C)(C)CC4)OC(C)C(C)C3=O (racemic) [(±)-7,8-Dihydro-12-Oxocalanolide A (7), (±)-7,8-Dihydro-12-Oxocalanolide A]",% Inhibition,[1]; 12.5 μg/mL,43%
same,MIC,[1],>12.5 µg/mL
"C#CCOc1cc2c(c3oc(=O)cc(CCC)c13)C(O)C(C)C(C)O2 (stereo not drawn) [Compound trans-17d, 5-(Prop-2-ynyloxy)-10-hydroxy-8,9-dimethyl-4-propyl-9,10-dihydro-8H-pyrano[2,3-f]chromen-2-one]",MIC,M. tuberculosis H37Ra,>128 µg/mL
"C[C@H]1[C@H](C)Oc2c3c(c4c(-c5ccccc5)cc(=O)oc4c2[C@H]1O)OC(C)(C)C=C3 [Soulattrolide (4), Soulattrolide]",inhibition at 12.5 µg/mL,"[1]; Mycobacterium tuberculosis, 12.5 μg/mL",99%
same,MIC,"[1]; Mycobacterium tuberculosis, read-out: MIC",3.13 µg/mL
"CCCc1cc(=O)oc2c(C(O)CC)c(OC)c3c(c12)OC(C)(C)CC3 (centres unmarked) [Compound 12b, 6-(1-Hydroxypropyl)-5-methoxy-2,2-dimethyl-10-propyl-3,4-dihydro-2H-pyrano[2,3-f]chromen-8-one]",MIC,M. tuberculosis H37Ra; [3],12.8 to 128 µg/mL
CCCc1cc(=O)oc2c3c(c4c(c12)OC(C)(C)C=C4)O[C@H](C)[C@@H](C)C3=O (racemic) [(±)-6],% Inhibition,[1]; 12.5 μg/mL,59%
same,MIC,[1],>12.5 µg/mL
"CCCc1cc(=O)oc2c(C(O)CC)c(OCCO)c3c(c12)OC(C)(C)C=C3 (centres unmarked) [Compound 11e, 5-(2-Hydroxyethoxy)-6-(1-hydroxypropyl)-2,2-dimethyl-10-propyl-2H-pyrano[2,3-f]chromen-8-one]",MIC,M. tuberculosis H37Ra; [2],12.8 to 128 µg/mL
"CCCc1cc(=O)oc2c(C(O)CC)c(OC)c3c(c12)OC(C)(C)C=C3 (centres unmarked) [Compound 11b, 6-(1-Hydroxypropyl)-5-methoxy-2,2-dimethyl-10-propyl-2H-pyrano[2,3-f]chromen-8-one]",MIC,M. tuberculosis H37Ra; [3],12.8 to 128 µg/mL
"7,8-Dihydrosoulattrolide [7,8-Dihydrosoulattrolide (5)]",% Inhibition,[1]; 12.5 μg/mL,99%
same,MIC,[1],6.25 µg/mL
"CCCc1cc(=O)oc2c(C(=O)CC)c(OCCN3CCOCC3)c3c(c12)OC(C)(C)CC3 [2,2-Dimethyl-5-(2-morpholin-4-yl-ethoxy)-6-propionyl-10-propyl-3,4-dihydro-2H-pyrano[2,3-f]-chromen-8-one]",MIC,M. tuberculosis H37Ra; [2],> 128 µg/mL
CCCc1cc(=O)oc2c(C(=O)CC)c3c(c(O)c12)C=CC(C)(C)O3 [Compound 47],MIC,M. tuberculosis H37Ra; [2],12.8 to 128 µg/mL
"CCCc1cc(=O)oc2c(C(O)CC)c(O)c3c(c12)OC(C)(C)C=C3 (centres unmarked) [Compound 11a, 5-Hydroxy-6-(1-hydroxypropyl)-2,2-dimethyl-10-propyl-2H-pyrano[2,3-f]chromen-8-one]",MIC,M. tuberculosis H37Ra; [2],12.8 to 128 µg/mL
"CCCc1cc(=O)oc2c(C(=O)CC)c(O)c3c(c12)OC(C)(C)CC3 [Compound 44a, 5-Hydroxy-2,2-dimethyl-6-propionyl-10-propyl-3,4-dihydro-2H-pyrano[2,3-f]chromen-8-one]",MIC,M. tuberculosis H37Ra; [2],> 128 µg/mL
CCCc1cc(=O)oc2c(C(=O)CC)c(OCCO)c3c(c12)OC(C)(C)CC3 [Compound 44k],MIC,M. tuberculosis H37Ra,>128 µg/mL
"C=C(C)COc1cc2c(c3oc(=O)cc(CCC)c13)C(O)C(C)C(C)O2 (stereo not drawn) [trans-17g, 5-(2-Methylallyloxy)-10-hydroxy-8,9-dimethyl-4-propyl-9,10-dihydro-8H-pyrano[2,3-f]chromen-2-one]",MIC,M. tuberculosis H37Ra,>128 µg/mL
"CCCc1cc(=O)oc2c(C(O)CC)c(OCCO)c3c(c12)OC(C)(C)CC3 (centres unmarked) [Compound 12e, 5-(2-Hydroxyethoxy)-6-(1-hydroxypropyl)-2,2-dimethyl-10-propyl-3,4-dihydro-2H-pyrano[2,3-f]chromen-8-one]",MIC,M. tuberculosis H37Ra; [2],12.8 to 128 µg/mL
"CCCc1cc(=O)oc2c(C(=O)CC)c(OC)c3c(c12)OC(C)(C)C=C3 [Compound 31b, 5-Methoxy-2,2-dimethyl-6-propionyl-10-propyl-2H-pyrano[2,3-f]chromen-8-one]",MIC,M. tuberculosis H37Ra; [2],12.8 to 128 µg/mL
"CCCc1cc(=O)oc2c(C(=O)CC)c(OCCO)c3c(c12)OC(C)(C)CC3 [Compound 44e, 5-(2-Hydroxyethoxy)-2,2-dimethyl-6-propionyl-10-propyl-3,4-dihydro-2H-pyrano[2,3-f]chromen-8-one]",MIC,M. tuberculosis H37Ra; [2],12.8 to 128 µg/mL
"CCCc1cc(=O)oc2c(C(N)CC)c(O)c3c(c12)OC(C)(C)C=C3 (centres unmarked) [Compound 45a, 6-(1-Aminopropyl)-5-hydroxy-2,2-dimethyl-10-propyl-2H-pyrano[2,3-f]chromen-8-one]",MIC,M. tuberculosis H37Ra; [2],12.8 to 128 µg/mL
